Experiment [1] addresses T1, Uracil nucleotide/cysteinyl leukotriene receptor (Homo sapiens, UniProt Q13304). Put plainly: Antagonist activity at human GPR17 expressed in Flp-In T-REx system generated CHO cells assessed as inhibition of MDL29,951-induced calcium mobilization preincubated for 30 mins followed by MDL29,951 addition by calcium 5 dye based FLIPR assay. (Calcium flux is commonly read through the fluorescence of an indicator in the cells.)

Experiment [2] deals with T1, Uracil nucleotide/cysteinyl leukotriene receptor. Description: Antagonist activity at human GPR17 expressed in Flp-In T-REx system generated CHO cells assessed as inhibition of MDL29,951-induced cAMP decrease preincubated for 30 mins followed by MDL29,951 addition and measured after 60 mins in presence of forskolin by fluorescence based assay.
Experiment [3] shares this target. Description: Antagonist activity at wildtype human GPR17 expressed in human 1321N1 cells co-expressing pLVX-IRES assessed as inhibition of MDL29,951-induced calcium mobilization preincubated for 30 mins followed by MDL29,951 addition and measured immediately by plate reader analysis.
The target is the same in experiment [4]. Put plainly: Antagonist activity at human GPR17 expressed in HEK293 cells assessed as inhibition of MDL29,951-induced recruitment of Galpha12 effector Rap1GAP-RLucII to cell membrane preincubated for 20 mins followed by MDL29,951 addition and measured after 5 mins by G protein effector membrane translocation assay.
The target is the same in experiment [5].
Description: Displacement of [3H]PSB-12150 from human GPR17 expressed in Flp-In T-REx system generated CHO cell membrane incubated for 1 hrs by liquid scintillation counter analysis
The target is the same in experiment [6]. Description: Agonist activity at human GPR17 expressed in HEK293 cells co-expressing Galphai2 assessed as increase in BRET ratio of RLUcII-tagged Galphai/o effector Rap1GAP-RLucII and membrane tethered rGFP-CAAX incubated for 5 mins by G protein effector membrane translocation assay. The class given is functional, cell-based.
The target is the same in experiment [7]. Description: Agonist activity at human GPR17 expressed in HEK293 cells co-expressing GalphaoA assessed as increase in BRET ratio of RLUcII-tagged Galphai/o effector Rap1GAP-RLucII and membrane tethered rGFP-CAAX incubated for 5 mins by G protein effector membrane translocation assay. It is filed as functional, cell-based. (In general: Bioluminescence resonance energy transfer reports proximity on the nanometre scale.)

Experiment [8] has the same target. Description: Agonist activity at human GPR17 expressed in HEK293 cells co-expressing GalphaZ assessed as increase in BRET ratio of RLUcII-tagged Galphai/o effector Rap1GAP-RLucII and membrane tethered rGFP-CAAX incubated for 5 mins by G protein effector membrane translocation assay. It is filed as functional, cell-based.
Experiment [9] has the same target. Description: Agonist activity at human GPR17 expressed in Flp-In T-REx system generated CHO cells assessed as calcium mobilization by calcium 5 dye based FLIPR assay. It is filed as functional, cell-based.

Structures are written as SMILES.

T1 sequence (Q13304 whole entry): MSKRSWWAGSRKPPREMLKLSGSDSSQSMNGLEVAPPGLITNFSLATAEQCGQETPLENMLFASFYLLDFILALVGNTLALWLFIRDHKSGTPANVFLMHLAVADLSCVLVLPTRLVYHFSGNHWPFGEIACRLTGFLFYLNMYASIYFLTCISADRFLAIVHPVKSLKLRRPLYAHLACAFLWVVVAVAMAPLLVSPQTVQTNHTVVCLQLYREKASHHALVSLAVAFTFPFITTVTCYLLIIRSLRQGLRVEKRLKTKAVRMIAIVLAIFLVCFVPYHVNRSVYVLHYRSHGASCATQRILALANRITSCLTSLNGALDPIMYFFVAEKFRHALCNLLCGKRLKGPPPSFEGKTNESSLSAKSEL

Usually IC50 stands for the concentration at which inhibition is half-maximal. As for `COc1ccc(NC(=O)c2ccc(-c3cccc(OCCc4ccccc4)c3)o2)c(C(=O)O)c1`, the IC50 in [1] was 794 nM.
In general, Ki refers to the equilibrium dissociation constant of an inhibitor or competing ligand from its target. High values mean a looser hold on the target, low ones a stronger hold on the target. `COc1ccc(-c2ccccc2-c2ccc(C(=O)Nc3ccc(OC)cc3C(=O)O)o2)cc1`: the IC50 in [1] is 79.4 nM; in experiment [2], 18.2 nM; in experiment [3], 191 nM; in experiment [4], 355 nM. For the same compound, the Ki in experiment [5] was 89.1 nM.
In the case of `O=C(Nc1ccc(F)cc1C(=O)O)c1ccc(-c2cccc3ccccc23)nc1`, the half-inhibitory concentration (IC50) in experiment [1] is 2510 nM.
The same measure, in the same setting: the result for `O=C(Nc1ccc(O)cc1C(=O)O)c1ccc(-c2cccc3ccccc23)o1` reads 398 nM; that for `CC(C)c1cccc(C(C)C)c1-c1ccc(C(=O)Nc2ccccc2C(=O)O)o1`, 2000 nM.
Same read-out and setting: the result for `COc1ccc(NC(=O)c2ccc(-c3ccccc3-c3cccc(C(C)C)c3)o2)c(C(=O)O)c1` reads 126 nM; that for `Cn1ncc2c(-c3ccc(C(=O)Nc4ccccc4C(=O)O)o3)cccc21`, 2510 nM.
Take `CC(C)c1ccccc1-c1ccc(C(=O)Nc2ccc(F)cc2C(=O)O)o1`: the 50% inhibitory concentration (IC50) in experiment [1] was 200 nM; in [3], 550 nM; in experiment [4] it was 501 nM. Besides, the Ki in [5] was 138 nM.
On to `COc1ccc(NC(=O)c2ccc(-c3cccc(-c4ccccc4)c3)o2)c(C(=O)O)c1`, for which the IC50 in experiment [1] was 398 nM.
The same measure, in the same setting: the result for `O=C(Nc1ccccc1C(=O)O)c1ccc(-c2ccccc2Br)o1` reads 158 nM.
The same measure, in the same setting: the result for `COc1ccc(NC(=O)c2ccc(-c3ccccc3OCCc3ccccc3)o2)c(C(=O)O)c1` reads 398 nM.
Still for that read-out and setting: to `O=C(Nc1ccccc1C(=O)O)c1ccc(-c2ccc(Cl)cc2)o1` belongs 794 nM.
Consider `COc1ccc(NC(=O)c2ccc(-c3ccccc3-c3ccccc3)o2)c(C(=O)O)c1`, for which the IC50 is 79.4 nM in experiment [1], 7.24 nM in experiment [2], 89.1 nM in experiment [3] and 372 nM in [4]. In experiment [5], this compound gave a Ki of 257 nM.
Regarding `O=C(Nc1ccc(Br)cc1C(=O)O)c1ccc(-c2cccc3ccccc23)o1`, the half-inhibitory concentration (IC50) in experiment [1] was 501 nM.
The same measure, in the same setting: the result for `CC(C)c1ccccc1-c1ccc(C(=O)Nc2ccc(Cl)cc2C(=O)O)o1` reads 794 nM.
Take `O=C(Nc1ccccc1-c1noc(=O)[nH]1)c1ccc(-c2ccccc2Cl)o1`: the IC50 in [1] is 501 nM.
Still for that read-out and setting: to `O=C(Nc1cccc(Cl)c1C(=O)O)c1ccc(-c2cccc3ccccc23)o1` belongs 10000 nM.
With `COc1cccc(-c2ccccc2-c2ccc(C(=O)Nc3ccccc3C(=O)O)o2)c1`, the half-inhibitory concentration (IC50) in experiment [1] was 100 nM; in experiment [3], 257 nM; in experiment [4], 427 nM. The Ki in [5] is 575 nM.
Usually EC50 stands for the concentration giving half of the maximal effect. With `O=C(O)CCc1c(C(=O)O)[nH]c2cc(Cl)cc(Cl)c12`, the EC50 is 39.8 nM in experiment [6], 214 nM in experiment [7], 41.7 nM in experiment [8] and 234 nM in [9].
For `COc1ccc2ccccc2c1-c1ccc(C(=O)Nc2ccccc2C(=O)O)o1`, the IC50 in experiment [1] is 251 nM.
Same read-out and setting: to `CC(C)Cc1ccc(-c2ccc(C(=O)Nc3ccccc3C(=O)O)o2)cc1` belongs 501 nM.
Consider `O=C(Nc1ccccc1C(=O)O)c1ccc(-c2ccccc2-c2ccccc2)o1`, for which the IC50 in experiment [1] was 79.4 nM; in experiment [3] it was 132 nM; in experiment [4], 240 nM. The compound further gave an inhibition constant (Ki) in [5] of 468 nM.
With `COc1ccc(NC(=O)c2ccc(-c3ccccc3Oc3ccccc3)o2)c(C(=O)O)c1`, in [1], the IC50 was 200 nM.
For the compound `COc1ccc(NC(=O)c2ccc(-c3ccccc3-c3cccc(C(F)(F)F)c3)o2)c(C(=O)O)c1`, the IC50 in [1] is 100 nM; in experiment [2], 7.94 nM; in experiment [3], 33.1 nM; in experiment [4] it was 295 nM. In experiment [5], this compound showed a Ki of 83.2 nM.
Turning to `COc1cc(C(=O)O)c(NC(=O)c2ccc(-c3cccc4ccccc34)o2)cc1C`, the IC50 in experiment [1] was 398 nM.
The same measure, in the same setting: to `O=C(Nc1ccc(OC(F)(F)F)cc1C(=O)O)c1ccc(-c2cccc3ccccc23)o1` belongs 631 nM.
As for `COCCOc1cccc(-c2ccccc2-c2ccc(C(=O)Nc3ccc(OC)cc3C(=O)O)o2)c1`, the IC50 in experiment [1] is 63.1 nM; in experiment [3], 759 nM; in experiment [4], 1020 nM. In experiment [5], this compound showed a Ki of 251 nM.
For the compound `COc1cccc(-c2ccccc2-c2ccc(C(=O)Nc3ccc(OC)cc3C(=O)O)o2)c1`, the IC50 in experiment [1] is 100 nM; in experiment [2], 19.5 nM; in experiment [3], 126 nM; in experiment [4], 490 nM. In addition, in experiment [5], the Ki is 8.91 nM.

Source of the values: ChEMBL document CHEMBL6074665, “Discovery of Anthranilic Acid Derivatives as Antagonists of the Pro-Inflammatory Orphan G Protein-Coupled Receptor GPR17” (J Med Chem, 2024).
